Results taken from PubChem BioAssay AID1259407 (Chemical Carcinogenesis Research Information System (CCRIS), 2018).
Active and inactive are the calls of the source. No rule for the calls is given here.

Test system: CCRIS mutagenicity, Ames/micronucleus/aberration tests
Experiment: CCRIS mutagenicity studies
[1] = Test System: AMES SALMONELLA TYPHIMURIUM, Strain/Indicator: TA100, Metabolic Activation: NONE, Method: STANDARD PLATE
[2] = Test System: AMES SALMONELLA TYPHIMURIUM, Strain/Indicator: TA100, Metabolic Activation: RAT, LIVER, S-9, AROCLOR 1254, Method: STANDARD PLATE

ClCCCl
mutagenic call (Test System: AMES SALMONELLA TYPHIMURIUM, Strain/Indicator: TA97, Metabolic Activation: HAMSTER, LIVER, S-9, AROCLOR 1254 (10%), Method: PREINCUBATION): inactive; negative | mutagenic call (Test System: AMES SALMONELLA TYPHIMURIUM, Strain/Indicator: TA97, Metabolic Activation: NONE, Method: PREINCUBATION): inactive; negative | mutagenic call (Test System: AMES SALMONELLA TYPHIMURIUM, Strain/Indicator: TA97, Metabolic Activation: NONE, Method: STANDARD PLATE): inactive; negative | mutagenic call (Test System: AMES SALMONELLA TYPHIMURIUM, Strain/Indicator: TA97, Metabolic Activation: RAT, LIVER, S-9, AROCLOR 1254 (10%), Method: PREINCUBATION): inactive; negative | mutagenic call (Test System: AMES SALMONELLA TYPHIMURIUM, Strain/Indicator: TA97, Metabolic Activation: RAT, LIVER, S-9, AROCLOR 1254, Method: STANDARD PLATE): active; positive | mutagenic call (Test System: AMES SALMONELLA TYPHIMURIUM, Strain/Indicator: TA98, Metabolic Activation: HAMSTER, LIVER, S-9, AROCLOR 1254 (10%), Method: PREINCUBATION): inactive; negative | mutagenic call (Test System: AMES SALMONELLA TYPHIMURIUM, Strain/Indicator: TA98, Metabolic Activation: NONE, Method: PREINCUBATION): inactive; negative | mutagenic call (Test System: AMES SALMONELLA TYPHIMURIUM, Strain/Indicator: TA98, Metabolic Activation: NONE, Method: STANDARD PLATE): inactive; negative | mutagenic call (Test System: AMES SALMONELLA TYPHIMURIUM, Strain/Indicator: TA98, Metabolic Activation: RAT, LIVER, S-9, AROCLOR 1254 (10%), Method: PREINCUBATION): inactive; negative | mutagenic call (Test System: AMES SALMONELLA TYPHIMURIUM, Strain/Indicator: TA98, Metabolic Activation: RAT, LIVER, S-9, AROCLOR 1254, Method: STANDARD PLATE): active; positive | mutagenic call (Test System: AMES SALMONELLA TYPHIMURIUM, Strain/Indicator: TA100, Metabolic Activation: HAMSTER, LIVER, S-9, AROCLOR 1254 (10%), Method: PREINCUBATION): inactive; negative | mutagenic call (Test System: AMES SALMONELLA TYPHIMURIUM, Strain/Indicator: TA100, Metabolic Activation: NONE, Method: PREINCUBATION): inactive; negative | mutagenic call [1]: active; positive | mutagenic call (Test System: AMES SALMONELLA TYPHIMURIUM, Strain/Indicator: TA100, Metabolic Activation: RAT, LIVER, S-9, AROCLOR 1254 (10%), Method: PREINCUBATION): inactive; negative | mutagenic call [2]: active; positive | mutagenic call (Test System: AMES SALMONELLA TYPHIMURIUM, Strain/Indicator: TA104, Metabolic Activation: NONE, Method: STANDARD PLATE): inactive; negative | mutagenic call (Test System: AMES SALMONELLA TYPHIMURIUM, Strain/Indicator: TA104, Metabolic Activation: RAT, LIVER, S-9, AROCLOR 1254, Method: STANDARD PLATE): active; positive | mutagenic call (Test System: AMES SALMONELLA TYPHIMURIUM, Strain/Indicator: TA1530, Metabolic Activation: NONE, Method: SPOT): active; positive | mutagenic call (Test System: AMES SALMONELLA TYPHIMURIUM, Strain/Indicator: TA1535, Metabolic Activation: HAMSTER, LIVER, S-9, AROCLOR 1254 (10%), Method: PREINCUBATION): active; positive | mutagenic call (Test System: AMES SALMONELLA TYPHIMURIUM, Strain/Indicator: TA1535, Metabolic Activation: NONE, Method: PREINCUBATION): inactive; negative | mutagenic call (Test System: AMES SALMONELLA TYPHIMURIUM, Strain/Indicator: TA1535, Metabolic Activation: NONE, Method: SPOT): active; positive | mutagenic call (Test System: AMES SALMONELLA TYPHIMURIUM, Strain/Indicator: TA1535, Metabolic Activation: NONE, Method: STANDARD PLATE): inactive; negative | mutagenic call (Test System: AMES SALMONELLA TYPHIMURIUM, Strain/Indicator: TA1535, Metabolic Activation: RAT, LIVER, S-9, AROCLOR 1254 (10%), Method: PREINCUBATION): active; positive | mutagenic call (Test System: AMES SALMONELLA TYPHIMURIUM, Strain/Indicator: TA1535, Metabolic Activation: RAT, LIVER, S-9, Method: STANDARD PLATE): active; positive | mutagenic call (Test System: AMES SALMONELLA TYPHIMURIUM, Strain/Indicator: TA1535, Metabolic Activation: S-9 MIX, Method: STANDARD PLATE): active; positive | mutagenic call (Test System: Ames Salmonella typhimurium, Strain/Indicator: TA98, Metabolic Activation: None, Method: Preincubation): inactive; negative | mutagenic call (Test System: Ames Salmonella typhimurium, Strain/Indicator: TA98, Metabolic Activation: Rat, Liver, S9, Sodium phenobarbital and 5,6-benzoflavone (10%), Method: Preincubation): inactive; negative | mutagenic call (Test System: Ames Salmonella typhimurium, Strain/Indicator: TA100, Metabolic Activation: None, Method: Preincubation): inactive; negative | mutagenic call (Test System: Ames Salmonella typhimurium, Strain/Indicator: TA100, Metabolic Activation: Rat, Liver, S9, Sodium phenobarbital and 5,6-benzoflavone (10%), Method: Preincubation): inactive; negative | mutagenic call (Test System: Ames Salmonella typhimurium, Strain/Indicator: TA1535, Metabolic Activation: Rat, Liver, S9, Sodium phenobarbital and 5,6-benzoflavone (10%), Method: Preincubation): active; positive | mutagenic call (Test System: Ames Salmonella typhimurium, Strain/Indicator: TA1537, Metabolic Activation: None, Method: Preincubation): inactive; negative | mutagenic call (Test System: Ames Salmonella typhimurium, Strain/Indicator: TA1537, Metabolic Activation: Rat, Liver, S9, Sodium phenobarbital and 5,6-benzoflavone (10%), Method: Preincubation): inactive; negative | mutagenic call (Test System: E. coli, Strain/Indicator: WP2uvrA/pKM101, Metabolic Activation: None, Method: Preincubation): inactive; negative | mutagenic call (Test System: E. coli, Strain/Indicator: WP2uvrA/pKM101, Metabolic Activation: Rat, Liver, S9, Sodium phenobarbital and 5,6-benzoflavone (10%), Method: Preincubation): inactive; negative

Nc1nc(-c2ccc([N+](=O)[O-])o2)cs1
mutagenic call (Test System: AMES SALMONELLA TYPHIMURIUM, Strain/Indicator: TA100, Metabolic Activation: RAT, LIVER, S-9, KC500 OR PHENOBARBITAL, Method: LIQUID SUSPENSION): active; positive | mutagenic call (Test System: E. COLI WP2, Strain/Indicator: WP2, Metabolic Activation: NONE, Method: SPOT): active; positive

COc1cc2c(c3oc(=O)c4c(c13)CC[C@H]4O)[C@@H]1C=CO[C@@H]1O2
mutagenic call [1]: inactive; negative | mutagenic call [2]: active; positive
